For experiment [1], the system named is NMDA receptor. As to the kind of experiment: Whole cell recording of NMDA-induced inward currents in cultured cortical neurons. Format: cell-based, mouse. As to the method:
Typical NMDA-induced inward currents (NMDA currents) were evoked by applying 300 μM NMDA to cortical neurons which were held at […]. Successive application of various concentrations of 2-Hydroxy-TTBA reduced the response elicited by 300 μM NMDA in a concentration-dependent manner (n=8).
Cortical neurons were treated with 100 μM 2-Hydroxy-TTBA, washed thoroughly, and then applied with 300 μM NMDA.
Whole cell recordings were performed on cortical cell cultures at room temperature as described [Seo et al., J. Pharmacol. Exp. Ther., 299:377-384 (2001)]. Typical NMDA-induced inward currents (NMDA currents) were evoked immediately after applying 300 μM NMDA to cultured cortical neurons which were held at −70 mV.

The subject of experiment [2] is Mouse cortical cell cultures. As to the kind of experiment: Zinc neurotoxicity in mixed cortical cell cultures (LDH assay). Format: cell-based. The settings on record: 100 μM ZnCl2 for 30 min, concurrent treatment; LDH 24 hr later. How it is done: Mouse cortical cell cultures (DIV 12-14) were exposed to […] for 30 min, alone or with inclusion of 3-300 μM 2-Hydroxy-TTBA. Neuronal death was analyzed 24 hr later by measuring levels of LDH released into the bathing medium, mean ±SEM (n=9-12 culture wells per condition), scaled to mean LDH efflux value 24 hr after sham wash (=0) and continuous exposure to 500 μM NMDA (=100).
For mixed neuron-glia culture, mouse cerebral cortices were removed from brains of the 14-16 day-old-fetal mice (E14-16), gently triturated and plated on 24 well plates (2×10^5 cells/plate) precoated with 100 μg/ml poly-D-lysine and 4 μg/ml laminine. Cultures were maintained at 37° C. in a humidified 5% CO2 atmosphere. […]
After 7-8 days in vitro (DIV 7-8), 10 μM cytosine arabinofuranoside (Ara-C) was included to halt overgrowth of glia. […] Overall neuronal cell injury was assessed by measuring amount of lactate dehydrogenase (LDH) released into the bathing medium 24 hr after neurotoxic insults as previously described [Koh and Choi, J Neurosci Methods 20:83-90, 1987].
To induce zinc (Zn^2+) neurotoxicity, mixed cortical cell cultures were exposed to 100 μM ZnCl2 for 30 min in a HEPES-buffered control salt solution (HCSS): (in mM) 120 NaCl, 5 KCl, 1.6 MgCl2, 2.3 CaCl2, 15 glucose, 20 HEPES and 10 NaOH, alone or with 3-300 uM 2-Hydroxy-TTBA. […] Neuronal cell death was analyzed 24 hr later by LDH assay. […]

The test system of experiment [3] is Sprague-dawley rats, four-vessel occlusion. Put plainly: CA1 neuronal cell death after transient forebrain ischemia. To be noted: 50 mg/kg ip; 10 min four-vessel occlusion; analyzed 3 d later. The experiment is classed as in vivo, rat. How it is done: Adult rats received transient global ischemia for 10 min, with intraperitoneal injections of vehicle (control) or 2-Hydroxy-TTBA (50 mg/kg) at 5 min after reperfusion. The number of degenerating neurons in the CA1 was analyzed 3 d later by counting viable neurons after staining with cresyl violet, mean ±S.E.M. *, Significant difference from the vehicle control, p<0.05 using the independent t-test.
Male adult Sprague-dawley rats (250-300 g) were anesthetized with chloral hydrate and subjected to four-vessel occlusion model (occlusion of both common carotid arteries and vertebral arteries) as previously described [Pulsinelli and Brierley, stroke 10: 267-272 (1979)].
Rats received four-vessel occlusion for 10 min followed by administration of saline (control) or 2-Hydroxy-TTBA (50 mg/kg, ip). Animals were euthanized 3 d later and processed for analysis of neuronal death in the CA1 field after staining with hematoxylin and eosin(mean ±SEM, N=12 rats/condition).

The test system of experiment [4] is Sprague-Dawley rats, compression of T8 spinal cord. Put plainly: Mitochondrial ROS production after traumatic spinal cord injury. Format: in vivo, rat. To be noted: 50 mg/kg ip immediately after injury; analyzed 48 hr later. As to the method:
Adult rats received compression injury at the level of T8 spinal cord, alone (control) or with injections of 2-Hydroxy-TTBA (50 mg/kg, ip) and Mitotracker CM-H2X ROS immediately after injury. Animals were euthanized 2 d later, spinal cord sections sections immunostained with an antibody for NeuN (a neuronal marker protein), and levels of mitochondrial ROS in the dorsal horn neurons (DHN) analyzed by measuring fluorescence intensity of oxidized Mitotracker CM-H2X, mean ±S.E.M. [n=12 rats for each condition (5 spinal cord sections for each rat)]. *, Significant difference from the vehicle control, p<0.05 using the independent t-test.
Sprague-Dawley rats (250-300 g, female) received traumatic spinal cord injury by compression of the dorsal spinal cord. T8 segment of spinal cord was exposed on the dorsal side, compressed with 20 g for 10 min, and then mitochondrial CM-H2X Ros was immediately injected into the spinal cord. 2-Hydroxy-TTBA (50 mg/kg, ip) or a vehicle control (control) was injected with mitochondrial CM-H2X Ros. Levels of mitochondrial ROS in the dorsal horn neurons were analyzed 48 hr later as described above after immunolabeling with anti-NeuN antibody, a neuron-specific marker.

Entries after “also recorded” stand apart in the source; their conditions may differ. Read-outs that look alike come from different tables or passages of the source.

The values that follow come from patent US7511074B2, “Tetrafluorobenzyl derivatives and pharmaceutical composition for preventing and treating acute and chronic neurodegenerative diseases in central nervous system containing the same” (AmKor Pharma, Inc., priority 2002, dated 2009).

Take `O=C(O)c1cc(NCc2c(F)c(F)c(C(F)(F)F)c(F)c2F)ccc1O` [2-Hydroxy-TTBA, 2-hydroxy-5-(2,3,5,6-tetrafluoro-4-trifluoromethylbenzylamino)benzoic acid]: the “effect on holding currents” value in experiment [1] (100 μM compound alone) was “had no effect on the holding currents”. For the same compound, the “effect of pretreatment on response to subsequent 300 μM NMDA” value in experiment [1] (100 μM compound applied alone, then 300 μM NMDA, n=6) is “did not influence NMDA-induced inward currents; also recorded: had little effect”. Moreover, in experiment [1] (300 μM NMDA, neurons held at −60 mV, n=8), the “Hill coefficient of dose response relation to NMDA currents” value is reported as 0.91. Also, the half-inhibitory concentration (IC50) (in general, the concentration that gives 50% inhibition) in experiment [1] (300 μM NMDA, neurons held at −60 mV, n=8, read-out: IC50 for NMDA currents (FIG. 2a legend)) was about 35 µM; in experiment [1] (300 μM NMDA, neurons held at −70 mV, bath application, n=7-15 neurons/condition, read-out: IC50 for depression of NMDA-evoked currents) it was 30.6 ± 2.96 µM. In addition, the “doses at which zinc-induced neuronal death was prevented” value in experiment [2] was in the range of 10 to 300 µM. In addition, in experiment [3], the “delayed neuronal cell death in the CA1 areas” value was “prevented delayed neuronal cell death”. Besides, in experiment [4], the “mitochondrial ROS production in spinal cord neurons” value is given as “significantly reduced mitochondrial ROS production”.
